Laboratory results: US20250090540A1, “PI3K-ALPHA INHIBITORS AND METHODS OF USE THEREOF” (Relay Therapeutics, Inc., priority 2021, published 2025)
Like-named read-outs stand apart in the source and are kept apart here.

Columns and labels:
[1] = cells; settings: Homo sapiens, MCF-10A, read-out: MCF10A I50
[2] = target: H1047R PIK3CA enzyme (Homo sapiens, UniProt P42336, H1047R); assay: ADP-Glo Biochemical PIK3CA Kinase Assay
[3] = ADP-Glo biochemical PIK3CA kinase assay

Chain of H1047R PIK3CA enzyme (P42336 whole entry H1047R): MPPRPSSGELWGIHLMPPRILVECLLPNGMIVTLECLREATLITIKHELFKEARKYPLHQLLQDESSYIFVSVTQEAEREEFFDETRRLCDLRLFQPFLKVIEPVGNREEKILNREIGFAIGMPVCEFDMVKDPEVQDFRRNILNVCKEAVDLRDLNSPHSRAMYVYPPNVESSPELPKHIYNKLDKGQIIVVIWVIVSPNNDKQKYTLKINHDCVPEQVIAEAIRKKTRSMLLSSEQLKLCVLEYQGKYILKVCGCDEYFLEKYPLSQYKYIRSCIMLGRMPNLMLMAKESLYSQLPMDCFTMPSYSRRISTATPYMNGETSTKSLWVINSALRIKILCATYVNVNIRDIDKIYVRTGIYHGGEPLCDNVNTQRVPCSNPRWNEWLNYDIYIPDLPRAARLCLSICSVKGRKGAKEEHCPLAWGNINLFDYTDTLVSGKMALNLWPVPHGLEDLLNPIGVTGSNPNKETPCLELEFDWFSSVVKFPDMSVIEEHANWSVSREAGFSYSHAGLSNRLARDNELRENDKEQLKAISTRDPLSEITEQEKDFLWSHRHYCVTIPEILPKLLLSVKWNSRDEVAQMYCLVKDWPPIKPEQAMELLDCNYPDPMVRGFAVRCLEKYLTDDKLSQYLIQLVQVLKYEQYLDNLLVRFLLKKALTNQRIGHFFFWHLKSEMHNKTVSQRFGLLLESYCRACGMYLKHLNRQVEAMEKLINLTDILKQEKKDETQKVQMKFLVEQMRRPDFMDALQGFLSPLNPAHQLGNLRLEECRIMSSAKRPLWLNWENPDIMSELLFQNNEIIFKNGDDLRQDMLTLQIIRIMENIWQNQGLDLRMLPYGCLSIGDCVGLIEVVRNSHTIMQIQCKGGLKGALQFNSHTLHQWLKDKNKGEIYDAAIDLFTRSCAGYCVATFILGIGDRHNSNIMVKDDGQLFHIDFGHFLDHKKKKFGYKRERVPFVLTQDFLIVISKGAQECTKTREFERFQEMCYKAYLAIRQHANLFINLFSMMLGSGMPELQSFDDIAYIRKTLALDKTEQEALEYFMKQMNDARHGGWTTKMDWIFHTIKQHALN
Chain of H1047R PIK3CA enzyme (P27986 whole entry partner): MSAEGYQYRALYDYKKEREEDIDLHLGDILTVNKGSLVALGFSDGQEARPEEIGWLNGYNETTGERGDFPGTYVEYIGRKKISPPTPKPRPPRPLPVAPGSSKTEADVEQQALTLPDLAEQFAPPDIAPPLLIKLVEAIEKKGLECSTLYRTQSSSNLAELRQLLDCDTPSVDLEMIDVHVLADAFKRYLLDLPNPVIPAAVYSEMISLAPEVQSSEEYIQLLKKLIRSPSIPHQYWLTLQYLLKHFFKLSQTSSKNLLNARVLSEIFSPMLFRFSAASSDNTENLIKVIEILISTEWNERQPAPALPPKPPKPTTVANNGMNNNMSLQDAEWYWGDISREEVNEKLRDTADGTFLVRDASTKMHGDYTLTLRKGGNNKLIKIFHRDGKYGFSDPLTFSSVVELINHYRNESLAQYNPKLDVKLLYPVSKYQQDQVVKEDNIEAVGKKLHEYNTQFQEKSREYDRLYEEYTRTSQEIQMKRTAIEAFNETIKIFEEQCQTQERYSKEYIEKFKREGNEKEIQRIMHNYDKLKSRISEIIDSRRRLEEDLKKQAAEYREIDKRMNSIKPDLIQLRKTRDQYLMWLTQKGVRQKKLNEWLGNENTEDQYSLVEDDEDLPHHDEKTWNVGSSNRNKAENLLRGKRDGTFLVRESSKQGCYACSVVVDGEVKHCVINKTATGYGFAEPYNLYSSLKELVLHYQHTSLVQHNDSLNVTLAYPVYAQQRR

SMILES | IC50 [1] [µM] | IC50 [2] [µM] | IC50 [2, 3] [µM]
CNC(=O)c1cnc(N2C(=O)NCc3ccccc32)c(NC(=O)c2csc3ccccc23)c1 [I-215] | 36 to 100 | 1 to 10 | 
CNC(=O)c1cnc(Nc2ccccc2F)c(NC(=O)c2cc(F)cc(C(F)(F)F)c2)c1 [I-300] | 36 to 100 | 1 to 10 | 
CC(=O)N1CC(NC(=O)c2cnc(N3CCOc4ccccc43)c(NC(=O)c3cc(F)cc(C(F)(F)F)c3)c2)C1 [I-329] | 10 to 36 | 0.5 to 1 | 
Cc1ccccc1Nc1ncc(C(=O)NCc2cnccc2C(F)(F)F)cc1NC(=O)c1csc2ccccc12 [I-525] | 10 to 36 |  | ≤ 0.1
Cc1ccccc1Nc1ncc(C(=O)NCC2CCCOC2)cc1NC(=O)c1csc2ccccc12 (centres unmarked) [I-621] | 10 to 36 |  | 0.1 to 0.5
Cc1ccccc1Nc1cnc(C(=O)NC2CS(=O)(=O)C2)cc1NC(=O)c1cc(F)cc(C(F)(F)F)c1 [I-343] | < 1 | 1 to 10 | 
CNC(=O)c1cnc(Nc2ccccc2C)c(NC(=O)c2cc(F)cc(C#N)c2)c1 [I-313] | 10 to 36 | 1 to 10 | 
Cc1ccccc1Nc1ncc(C(=O)NC2NC(=O)c3ccccc32)cc1NC(=O)c1csc2ccccc12 (centres unmarked) [I-568] | 1 to 5 |  | ≤ 0.1
Cc1ccccc1Nc1ncc(C(=O)NCCn2ccnn2)cc1NC(=O)c1csc2ccccc12 [I-570] | 10 to 36 |  | 0.1 to 0.5
Cc1ccccc1Nc1ncc(C(=O)NC2CS(=O)(=O)C2)cc1NC(=O)c1nsc2ccccc12 [I-330] | 1 to 5 | 0.1 to 0.5 | 
Cc1ccccc1Nc1ncc(C(=O)N[C@@H]2COC[C@@H]2F)cc1NC(=O)c1csc2ccccc12 [I-590] | 5 to 10 |  | 0.1 to 0.5
Cc1ccccc1Nc1ncc(C(=O)N[C@H]2CCN(C)C2)cc1NC(=O)c1cc(F)cc(C(F)(F)F)c1 (stereo in doubt) [I-67] | 10 to 36 | 0.5 to 1 | 
CNC(=O)c1cnc(Nc2cccc(Cl)c2C)c(NC(=O)c2cc(F)cc(C(F)(F)F)c2)c1 [I-290] | 36 to 100 | 1 to 10 | 
Cc1ccccc1Nc1ncc(C(=O)NCC2(O)CC2)cc1NC(=O)c1csc2ccccc12 [I-599] | 5 to 10 |  | 0.1 to 0.5
Cc1ccccc1Nc1ncc(C(=O)NCc2ccc3c(c2)OCCO3)cc1NC(=O)c1csc2ccccc12 [I-534] | 10 to 36 |  | ≤ 0.1
Cc1ccccc1Nc1ncc(N2CC(S(C)(=O)=O)C2)cc1NC(=O)c1csc2ccccc12 [I-436] | 10 to 36 |  | 0.5 to 1
CNC(=O)c1cnc(Nc2ccccc2C)c(NC(=O)c2n[nH]c3ccc(Br)cc23)c1 [I-520] | 10 to 36 |  | ≤ 0.1
Cc1ccccc1Nc1ncc(-c2ccc(C(N)=O)cc2)cc1NC(=O)c1cc(F)cc(C(F)(F)F)c1 [I-79] | 5 to 10 | 0.1 to 0.5 | 
Cc1ccccc1Nc1ncc(C(=O)NC2(C)CC2)cc1NC(=O)c1csc2ccccc12 [I-581] | 1 to 5 |  | ≤ 0.1
Cc1ccccc1Nc1ncc(C(=O)NC2CC(F)(F)C2)cc1NC(=O)c1nsc2ccccc12 [I-332] | 5 to 10 | 0.1 to 0.5 | 
COC[C@@H](C)NC(=O)c1cnc(Nc2ccccc2C)c(NC(=O)c2csc3ccccc23)c1 [I-526] | 10 to 36 |  | 1 to 10
Cc1ccccc1Nc1ncc(-c2cccc(S(N)(=O)=O)c2)cc1NC(=O)c1cc(F)cc(C(F)(F)F)c1 [I-45] | 1 to 5 | 0.1 to 0.5 | 
CNC(=O)c1cnc(Nc2ncccc2C)c(NC(=O)c2csc3ccccc23)c1 [I-335] | 10 to 36 | 0.5 to 1 | 
CNC(=O)c1cnc(Nc2ccccc2C)c(NC(=O)c2cnc(OC)c(C(F)(F)F)c2)c1 [I-535] | 10 to 36 |  | 1 to 10
Cc1ccccc1Nc1ncc(C(=O)NCC(F)F)cc1NC(=O)c1csc2ccccc12 [I-519] | 5 to 10 |  | ≤ 0.1
Cc1ccccc1Nc1cc(=O)n(Cc2ccccc2C#N)cc1NC(=O)c1csc2ccccc12 [I-279] | 10 to 36 | 0.1 to 0.5 | 

SMILES | IC50 [1] [µM] | IC50 [2] [µM] | IC50 [2, 3] [µM]
COCC(=O)N1CCC(NC(=O)c2cnc(Nc3ccccc3C)c(NC(=O)c3csc4ccccc34)c2)CC1 [I-592] | 5 to 10 |  | 1 to 10
CNC(=O)c1cnc(Nc2ccccc2C)c(NC(=O)C(O)c2cccc(F)c2)c1 (centres unmarked) [I-27] | 1 to 5 | 0.5 to 1 | 
Cc1ccccc1Nc1ncc(C(=O)Nc2ccc3cn(C)nc3c2)cc1NC(=O)c1csc2ccccc12 [I-609] | 1 to 5 |  | ≤ 0.1
Cc1ccccc1Nc1ncc(C(=O)N[C@H]2CC[C@@H](F)C2)cc1NC(=O)c1csc2ccccc12 [I-546] | 5 to 10 |  | ≤ 0.1
Cc1ccccc1Nc1ncc(C(=O)N[C@@H]2c3ccccc3C[C@@H]2O)cc1NC(=O)c1csc2ccccc12 [I-506] | 5 to 10 |  | 0.1 to 0.5
CNC(=O)c1cnc(Nc2ccccc2C)c(NS(=O)(=O)c2ccc(F)cc2C)c1 [I-8] | 1 to 5 | 0.1 to 0.5 | 
Cc1ccccc1Nc1ncc(C(=O)N[C@@H]2CC(=O)N(C)C2)cc1NC(=O)c1csc2ccccc12 (racemic) [I-326] | 5 to 10 | 0.1 to 0.5 | 
Cc1ccccc1Nc1ncc(C(=O)NCc2cccnc2)cc1NC(=O)c1cc(F)cc(C(F)(F)F)c1 [I-700] | 10 to 36 |  | 0.1 to 0.5
Cc1ccccc1Nc1ncc(C(=O)NCC(F)(F)F)cc1NC(=O)c1csc2ccccc12 [I-196] | 5 to 10 | 0.1 to 0.5 | 
CNC(=O)c1cnc(Nc2cccc(F)c2Cl)c(NC(=O)c2cc(F)cc(C(F)(F)F)c2)c1 [I-249] | 1 to 5 | 0.1 to 0.5 | 
CNC(=O)c1cnc(Nc2cccc(F)c2F)c(NC(=O)c2cc(F)cc(C(F)(F)F)c2)c1 [I-296] | 5 to 10 | 0.1 to 0.5 | 
COc1cncc(CNC(=O)c2cnc(Nc3ccccc3C)c(NC(=O)c3csc4ccccc34)c2)c1 [I-199] | 10 to 36 | 0.1 to 0.5 | 
Cc1ccccc1Nc1ncc(C(=O)NC2CC(O)C2)cc1NC(=O)c1cc(F)cc(C(F)(F)F)c1 (centres unmarked) [I-274] | 1 to 5 | 0.1 to 0.5 | 
CNC(=O)c1cnc(Nc2nc(C)cs2)c(NC(=O)c2cc(F)cc(C(F)(F)F)c2)c1 [I-304] | 36 to 100 | 1 to 10 | 
Cc1ccccc1Nc1ncc(C(=O)NC(C)c2nnc3ccccn23)cc1NC(=O)c1csc2ccccc12 (centres unmarked) [I-616] | 1 to 5 |  | ≤ 0.1
O=C(NCc1ccccc1CN1CCCCC1)c1cc(F)cc(C(F)(F)F)c1 [I-785] |  |  | 10 to 100
Cc1ccccc1Nc1ncc(-c2cnn(C)c2)cc1NC(=O)c1ccccc1C [I-127] |  | 10 to 100 | 
Cc1ccccc1Nc1ncc(C2=CCNCC2)cc1NC(=O)c1cc(F)cc(C(F)(F)F)c1 [I-16] |  | 10 to 100 | 
Cc1ccccc1Nc1ncc(C(=O)NCC2(C#N)CCCC2)cc1NC(=O)c1csc2ccccc12 [I-511] |  |  | 10 to 100
CNC(=O)c1cnc(Nc2ccccc2C)c(NC(=O)[C@@H]2C[C@H]2c2ccccc2)c1 [I-165] |  | 10 to 100 | 
CNC(=O)c1cnc(Nc2ccccc2C)c(NC(=O)C2CCOc3ccccc32)c1 (centres unmarked) [I-259] |  | 10 to 100 | 
CNC(=O)c1cnc(Nc2ccccc2C)c(NC(=O)C2(c3cccc(F)c3)CC2)c1 [I-475] |  |  | 1 to 10
Cc1ccccc1N[C@H]1CCN(C2CCC2)C[C@H]1C(=O)Nc1cc(F)cc(C(F)(F)F)c1 (racemic) [I-252] |  | 10 to 100 | 
COC1CN(C(=O)c2cnc(Nc3ccccc3C)c(NC(=O)c3csc4ccccc34)c2)C1 [I-541] |  |  | 1 to 10
COC(=O)c1cnc(N)c(NC(=O)c2csc3ccccc23)c1 [I-674] |  |  | 1 to 10
